# “And” between values parts separate entries of the source, which are not always exact repeats. Equal values may be shown once. Read-outs that look alike come from different tables or passages of the source.
# Assays:
# [1] = Plasma and brain concentration 30 min after IP injection; format: in vivo, mouse; settings: male, C57BL6/J, mouse, mice, ip dosing, 30 minutes; for Kp at 30 min: brain/plasma, read-out: B/P
# Method: All studies were performed on 6-week old male C57BL6/J mice that were housed in the Columbia University Medical Center facility in a 12h light/dark cycle with access to food and water ad libitum. All animal procedures were approved by the Columbia University IACUC. […] Animals were weighed and injected once intraperitoneally (IP) at the indicated dose (10 or 20 mg/kg). After 30 min, animals were deeply anesthetized with 2.5% Avertin. Whole blood was collected by cardiac puncture in tubes containing 0.5M EDTA as an anticoagulant, and centrifuged for 10 min at 845 rcf at 4° to isolate plasma. Following cardiac puncture, animals were decapitated and brains were dissected and weighed. Brain samples were homogenized with a glass dounce homogenizer in 5 volumes of ddH2O. Brain and plasma samples were snap frozen in liquid nitrogen and stored at −80° C. before further processing.
# The plasma samples were transferred to Eppendorf tubes (50 μL per sample) and diluted with acetonitrile (200 μL). The samples were sonicated for 1 minute followed by centrifugation at 16,000 rpm for 10 minutes. The supernatant was transferred to another Eppendorf tube and the solvent evaporated overnight. The samples were reconstituted in a mixture of 40 μL acetonitrile and 10 μL water transferred to a sample vial with insert, and analyzed by LC-MS.
# The homogenized brain samples (250 μL) were transferred to Eppendorf tubes and diluted with acetonitrile (750 μL). The samples were sonicated for 1 minute followed by centrifugation at 16,000 rpm for 10 minutes. The supernatant (900 μL) was transferred to another Eppendorf tube and the solvent evaporated overnight. The samples were reconstituted in a mixture of 80 μL acetonitrile and 20 μL water, transferred to a sample vial with insert, and analyzed by LC-MS.
# LC-MS analysis was performed on a platform comprising a Thermo Scientific Dionex Ultimate 3000 and a Bruker amaZon SL equipped with an electrospray ionization source controlled by Bruker Hystar 3.2. The compound concentration in each plasma sample was determined using a calibration curve. Chromatographic separation was performed by injecting 10 μL of the sample onto an Agilent Eclipse Plus C18 column (2.1×50 mm, 3.5 μm) maintained at 20° C. The flow rate was maintained at 400 μL/min. The initial flow conditions were 60% solvent A (water containing 0.1% acetic acid) and 40% solvent B (methanol containing 0.1% acetic acid). Solvent B was raised to 60% over 0.25 minutes and to 70% by 6.75 minutes.
# [2] = target: T1, panel of 371 human kinases (Homo sapiens, UniProt Q13163); assay: Radiolabeled ATP kinase assay, panel of 371 kinases (Table S6); format: biochemical; settings: MEK5; 0.1 μM; 10 μM ATP; read-out: % Enzyme Activity (relative to DMSO controls)
# T1 construct: purchased Reaction Biology Corp
# Description: (§1) ; FIG. 38C). […]. Further targeted analyses, such as genetic knock-down or knock-out, may be warranted to parse the role of these additional kinases in our model of neurodegeneration.
# [3] = target: T2, panel of 371 human kinases (Homo sapiens, UniProt P49674); assay: as above; format: biochemical; settings: CK1epsilon; 0.1 μM; 10 μM ATP; read-out: % Enzyme Activity (relative to DMSO controls)
# T2 construct: purchased Reaction Biology Corp
# Description: as §1
# [4] = target: T3, panel of 371 human kinases (Homo sapiens, UniProt P51451); assay: as above; format: biochemical; settings: BLK; 0.1 μM; 10 μM ATP; read-out: % Enzyme Activity (relative to DMSO controls)
# T3 construct: purchased Reaction Biology Corp
# Description: as §1
# [5] = target: T4, panel of 371 human kinases (Homo sapiens, UniProt Q8NG66); assay: as above; format: biochemical; settings: NEK11; 0.1 μM; 10 μM ATP; read-out: % Enzyme Activity (relative to DMSO controls)
# T4 construct: purchased Reaction Biology Corp
# Description: as §1
# [6] = target: T5, panel of 371 human kinases (Homo sapiens, UniProt P45983); assay: as above; format: biochemical; settings: JNK1; 0.1 μM; 10 μM ATP; read-out: % Enzyme Activity (relative to DMSO controls)
# T5 construct: purchased Reaction Biology Corp
# Description: as §1
# [7] = target: T6, panel of 371 human kinases (Homo sapiens, UniProt P16591); assay: as above; format: biochemical; settings: FER; 0.1 μM; 10 μM ATP; read-out: % Enzyme Activity (relative to DMSO controls)
# T6 construct: purchased Reaction Biology Corp
# Description: as §1
# [8] = target: T7, panel of 371 human kinases (Homo sapiens, UniProt P52333); assay: as above; format: biochemical; settings: JAK3; 0.1 μM; 10 μM ATP; read-out: % Enzyme Activity (relative to DMSO controls)
# T7 construct: purchased Reaction Biology Corp
# Description: as §1
# [9] = target: T8, panel of 371 human kinases (Homo sapiens, UniProt Q9Y5S2); assay: as above; format: biochemical; settings: MRCKb/CDC42BPB; 0.1 μM; 10 μM ATP; read-out: % Enzyme Activity (relative to DMSO controls)
# T8 construct: purchased Reaction Biology Corp
# Description: as §1
# [10] = target: T9, panel of 371 human kinases (Homo sapiens, UniProt P49840); assay: as above; format: biochemical; settings: GSK3a; 0.1 μM; 10 μM ATP; read-out: % Enzyme Activity (relative to DMSO controls)
# T9 construct: purchased Reaction Biology Corp
# Description: as §1
# [11] = target: T10, panel of 371 human kinases (Homo sapiens, UniProt Q9NQU5); assay: as above; format: biochemical; settings: PAK6; 0.1 μM; 10 μM ATP; read-out: % Enzyme Activity (relative to DMSO controls)
# T10 construct: purchased Reaction Biology Corp
# Description: as §1
# [12] = target: T11, panel of 371 human kinases (Homo sapiens, UniProt Q9H1R3); assay: as above; format: biochemical; settings: MLCK2/MYLK2; 0.1 μM; 10 μM ATP; read-out: % Enzyme Activity (relative to DMSO controls)
# T11 construct: purchased Reaction Biology Corp
# Description: as §1
# [13] = target: T12, panel of 371 human kinases (Homo sapiens, UniProt Q15349); assay: as above; format: biochemical; settings: RSK3; 0.1 μM; 10 μM ATP; read-out: % Enzyme Activity (relative to DMSO controls)
# T12 construct: purchased Reaction Biology Corp
# Description: as §1
# [14] = target: T13, panel of 371 human kinases (Homo sapiens, UniProt P51955); assay: as above; format: biochemical; settings: NEK2; 0.1 μM; 10 μM ATP; read-out: % Enzyme Activity (relative to DMSO controls)
# T13 construct: purchased Reaction Biology Corp
# Description: as §1
# [15] = target: T14, panel of 371 human kinases (Homo sapiens, UniProt Q16816); assay: as above; format: biochemical; settings: PHKg1; 0.1 μM; 10 μM ATP; read-out: % Enzyme Activity (relative to DMSO controls)
# T14 construct: purchased Reaction Biology Corp
# Description: as §1
# [16] = target: T15, panel of 371 human kinases (Homo sapiens, UniProt O94804); assay: as above; format: biochemical; settings: LOK/STK10; 0.1 μM; 10 μM ATP; read-out: % Enzyme Activity (relative to DMSO controls)
# T15 construct: purchased Reaction Biology Corp
# Description: as §1
# T4 sequence (Q8NG66 whole entry): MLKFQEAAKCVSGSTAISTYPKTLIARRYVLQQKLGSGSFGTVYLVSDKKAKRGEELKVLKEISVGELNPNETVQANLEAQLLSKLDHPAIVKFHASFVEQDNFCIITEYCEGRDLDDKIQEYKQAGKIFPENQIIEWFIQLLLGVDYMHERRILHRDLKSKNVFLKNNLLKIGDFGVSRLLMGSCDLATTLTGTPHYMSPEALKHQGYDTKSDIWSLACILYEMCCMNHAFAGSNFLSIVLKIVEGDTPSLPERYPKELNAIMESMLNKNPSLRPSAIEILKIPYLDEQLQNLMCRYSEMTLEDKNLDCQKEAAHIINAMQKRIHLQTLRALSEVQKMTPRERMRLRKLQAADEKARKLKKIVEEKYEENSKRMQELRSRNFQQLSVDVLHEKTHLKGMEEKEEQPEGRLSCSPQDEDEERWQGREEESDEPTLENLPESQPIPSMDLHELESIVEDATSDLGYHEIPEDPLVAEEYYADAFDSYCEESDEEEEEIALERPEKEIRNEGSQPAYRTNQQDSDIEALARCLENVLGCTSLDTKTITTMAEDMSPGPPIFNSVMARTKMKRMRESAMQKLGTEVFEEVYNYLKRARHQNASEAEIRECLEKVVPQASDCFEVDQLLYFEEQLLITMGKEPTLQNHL
# T2 sequence (P49674 whole entry): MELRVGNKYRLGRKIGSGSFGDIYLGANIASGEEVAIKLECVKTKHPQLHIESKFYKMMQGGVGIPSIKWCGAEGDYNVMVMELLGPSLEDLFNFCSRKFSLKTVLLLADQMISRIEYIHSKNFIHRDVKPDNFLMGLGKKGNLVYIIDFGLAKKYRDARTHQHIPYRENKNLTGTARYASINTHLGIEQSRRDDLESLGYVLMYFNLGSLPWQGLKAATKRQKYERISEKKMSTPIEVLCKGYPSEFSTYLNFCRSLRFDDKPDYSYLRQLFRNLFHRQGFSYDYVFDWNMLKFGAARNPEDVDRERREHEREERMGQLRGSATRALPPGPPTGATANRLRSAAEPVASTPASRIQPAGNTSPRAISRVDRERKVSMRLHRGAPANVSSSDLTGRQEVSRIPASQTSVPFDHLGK
# T9 sequence (P49840 whole entry): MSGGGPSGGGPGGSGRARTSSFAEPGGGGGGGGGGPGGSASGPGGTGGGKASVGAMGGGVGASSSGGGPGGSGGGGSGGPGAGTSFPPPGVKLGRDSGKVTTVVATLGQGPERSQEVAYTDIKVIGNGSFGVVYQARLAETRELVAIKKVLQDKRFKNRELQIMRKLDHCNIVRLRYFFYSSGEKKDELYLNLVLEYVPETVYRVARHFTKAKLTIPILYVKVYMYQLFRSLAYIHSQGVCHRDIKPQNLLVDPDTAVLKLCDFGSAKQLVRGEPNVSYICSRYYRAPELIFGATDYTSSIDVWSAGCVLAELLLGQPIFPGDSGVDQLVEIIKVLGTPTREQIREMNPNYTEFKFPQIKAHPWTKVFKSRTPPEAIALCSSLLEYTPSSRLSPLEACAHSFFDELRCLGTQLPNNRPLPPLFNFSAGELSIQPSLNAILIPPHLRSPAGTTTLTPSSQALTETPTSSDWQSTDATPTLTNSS
# T1 sequence (Q13163 whole entry): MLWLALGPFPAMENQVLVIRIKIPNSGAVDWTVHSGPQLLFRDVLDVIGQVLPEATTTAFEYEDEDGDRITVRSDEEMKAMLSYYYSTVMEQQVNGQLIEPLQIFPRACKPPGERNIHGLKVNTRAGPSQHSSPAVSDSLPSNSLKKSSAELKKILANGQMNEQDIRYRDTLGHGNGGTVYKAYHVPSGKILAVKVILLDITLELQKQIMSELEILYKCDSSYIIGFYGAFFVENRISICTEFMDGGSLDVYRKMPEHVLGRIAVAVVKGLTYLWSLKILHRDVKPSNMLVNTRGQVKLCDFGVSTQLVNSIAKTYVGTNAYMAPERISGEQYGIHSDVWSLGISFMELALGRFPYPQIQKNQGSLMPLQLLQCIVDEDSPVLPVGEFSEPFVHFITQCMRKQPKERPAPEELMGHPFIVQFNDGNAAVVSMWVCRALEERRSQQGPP
# T11 sequence (Q9H1R3 whole entry): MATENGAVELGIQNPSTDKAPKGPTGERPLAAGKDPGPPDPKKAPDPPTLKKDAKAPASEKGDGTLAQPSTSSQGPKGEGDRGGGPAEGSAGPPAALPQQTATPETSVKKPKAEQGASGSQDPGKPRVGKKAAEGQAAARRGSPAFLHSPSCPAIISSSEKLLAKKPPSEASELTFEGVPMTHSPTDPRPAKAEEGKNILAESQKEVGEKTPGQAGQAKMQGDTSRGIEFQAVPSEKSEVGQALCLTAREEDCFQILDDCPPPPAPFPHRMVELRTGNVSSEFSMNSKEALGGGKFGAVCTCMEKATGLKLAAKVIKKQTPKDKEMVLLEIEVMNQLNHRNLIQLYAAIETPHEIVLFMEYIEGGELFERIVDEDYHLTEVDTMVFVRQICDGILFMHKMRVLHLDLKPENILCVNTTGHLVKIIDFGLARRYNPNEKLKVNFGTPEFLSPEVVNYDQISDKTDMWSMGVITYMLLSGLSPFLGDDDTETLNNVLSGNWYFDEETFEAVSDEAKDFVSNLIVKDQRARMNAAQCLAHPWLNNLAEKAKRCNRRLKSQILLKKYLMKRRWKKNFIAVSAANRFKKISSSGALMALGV
# T8 sequence (Q9Y5S2 whole entry): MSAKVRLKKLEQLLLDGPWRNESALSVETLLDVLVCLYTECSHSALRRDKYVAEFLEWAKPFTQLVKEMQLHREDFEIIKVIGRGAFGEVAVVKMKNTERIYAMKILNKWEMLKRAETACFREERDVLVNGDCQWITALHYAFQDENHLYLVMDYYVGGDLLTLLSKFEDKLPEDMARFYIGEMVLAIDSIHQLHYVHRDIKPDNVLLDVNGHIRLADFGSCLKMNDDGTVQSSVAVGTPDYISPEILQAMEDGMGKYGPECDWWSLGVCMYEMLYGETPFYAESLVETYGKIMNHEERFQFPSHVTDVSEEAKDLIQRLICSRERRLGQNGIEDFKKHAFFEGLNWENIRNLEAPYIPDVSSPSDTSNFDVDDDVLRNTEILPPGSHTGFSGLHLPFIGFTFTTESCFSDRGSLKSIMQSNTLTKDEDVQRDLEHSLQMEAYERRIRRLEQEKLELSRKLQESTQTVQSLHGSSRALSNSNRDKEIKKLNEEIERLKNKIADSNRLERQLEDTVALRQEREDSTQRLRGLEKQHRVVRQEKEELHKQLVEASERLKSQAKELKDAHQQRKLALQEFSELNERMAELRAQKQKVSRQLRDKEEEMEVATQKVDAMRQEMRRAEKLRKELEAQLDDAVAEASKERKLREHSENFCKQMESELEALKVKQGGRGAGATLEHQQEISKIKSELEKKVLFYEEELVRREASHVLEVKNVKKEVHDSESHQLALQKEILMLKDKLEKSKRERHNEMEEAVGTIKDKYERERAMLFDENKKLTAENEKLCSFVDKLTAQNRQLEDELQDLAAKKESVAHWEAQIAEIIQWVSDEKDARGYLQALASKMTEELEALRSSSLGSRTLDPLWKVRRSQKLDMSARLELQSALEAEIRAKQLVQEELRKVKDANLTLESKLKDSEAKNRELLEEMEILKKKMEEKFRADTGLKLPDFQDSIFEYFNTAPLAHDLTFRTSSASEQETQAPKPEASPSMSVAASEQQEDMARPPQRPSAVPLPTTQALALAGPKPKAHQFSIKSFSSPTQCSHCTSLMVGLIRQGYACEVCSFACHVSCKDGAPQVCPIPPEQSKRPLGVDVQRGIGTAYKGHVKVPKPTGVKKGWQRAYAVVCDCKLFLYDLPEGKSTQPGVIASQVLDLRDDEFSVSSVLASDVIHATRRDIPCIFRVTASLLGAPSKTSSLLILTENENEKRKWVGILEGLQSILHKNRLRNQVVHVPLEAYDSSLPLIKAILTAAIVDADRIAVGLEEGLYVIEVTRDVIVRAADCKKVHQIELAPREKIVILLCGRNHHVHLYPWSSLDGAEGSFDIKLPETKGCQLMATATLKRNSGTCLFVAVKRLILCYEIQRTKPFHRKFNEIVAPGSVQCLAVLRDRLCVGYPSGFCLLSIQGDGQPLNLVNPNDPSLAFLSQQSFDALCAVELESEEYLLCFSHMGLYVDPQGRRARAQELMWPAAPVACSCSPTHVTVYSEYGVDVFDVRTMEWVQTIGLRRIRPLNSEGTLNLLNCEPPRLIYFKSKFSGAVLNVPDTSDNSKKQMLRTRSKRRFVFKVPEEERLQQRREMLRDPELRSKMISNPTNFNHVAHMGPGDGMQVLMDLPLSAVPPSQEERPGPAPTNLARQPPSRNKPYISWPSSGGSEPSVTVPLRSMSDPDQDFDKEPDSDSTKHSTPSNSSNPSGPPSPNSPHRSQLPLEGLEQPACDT
# T12 sequence (Q15349 whole entry): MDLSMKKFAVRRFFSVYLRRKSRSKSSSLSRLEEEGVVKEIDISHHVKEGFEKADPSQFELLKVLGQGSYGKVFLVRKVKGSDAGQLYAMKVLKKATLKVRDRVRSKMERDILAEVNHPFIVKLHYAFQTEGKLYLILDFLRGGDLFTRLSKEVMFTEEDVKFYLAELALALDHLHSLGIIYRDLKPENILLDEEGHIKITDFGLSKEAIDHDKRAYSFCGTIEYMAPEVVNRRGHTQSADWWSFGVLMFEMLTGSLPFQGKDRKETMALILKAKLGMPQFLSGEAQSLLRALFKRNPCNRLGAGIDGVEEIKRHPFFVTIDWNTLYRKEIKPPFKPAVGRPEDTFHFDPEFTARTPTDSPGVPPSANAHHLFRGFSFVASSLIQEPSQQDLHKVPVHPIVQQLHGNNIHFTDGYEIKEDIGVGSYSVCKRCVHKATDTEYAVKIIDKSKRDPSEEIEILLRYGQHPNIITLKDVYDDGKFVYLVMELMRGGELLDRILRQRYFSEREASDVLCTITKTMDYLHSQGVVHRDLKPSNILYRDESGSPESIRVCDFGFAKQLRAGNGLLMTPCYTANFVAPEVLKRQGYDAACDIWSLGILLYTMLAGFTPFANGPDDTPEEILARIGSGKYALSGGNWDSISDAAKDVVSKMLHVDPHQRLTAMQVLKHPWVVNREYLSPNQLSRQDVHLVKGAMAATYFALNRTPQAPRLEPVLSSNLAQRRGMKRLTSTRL
Compound,Kp at 30 min ([1]; 10 mg/kg),Kp at 30 min ([1]; 20 mg/kg),"concentration at 30 min ([1]; 10 mg/kg, read-out: brain)","concentration at 30 min ([1]; 10 mg/kg, read-out: plasma)","concentration at 30 min ([1]; 20 mg/kg, read-out: brain)","concentration at 30 min ([1]; 20 mg/kg, read-out: plasma)",remaining activity at 0.1 µM [2] [%],remaining activity at 0.1 µM [3] [%],remaining activity at 0.1 µM [4] [%],remaining activity at 0.1 µM [5] [%],remaining activity at 0.1 µM [6] [%],remaining activity at 0.1 µM [7] [%],remaining activity at 0.1 µM [8] [%],remaining activity at 0.1 µM [9] [%],remaining activity at 0.1 µM [10] [%],remaining activity at 0.1 µM [11] [%],remaining activity at 0.1 µM [12] [%],remaining activity at 0.1 µM [13] [%],remaining activity at 0.1 µM [14] [%],remaining activity at 0.1 µM [15] [%],other results
"CN1CCN(Cc2ccc(-c3cnc4[nH]cc(-c5ccc6[nH]ccc6c5)c4c3)cc2)CC1 [Compound 1, 3-(1H-Indol-5-yl)-5-(4-((4-methylpiperazin-1-yl)methyl)phenyl)-1H-pyrrolo[2,3-b]pyridine, reference compound]",0.3,0.4,1010 ng/g and 1.89 µM,3210 ng/mL and 6 µM,1410 ng/g and 2.64 µM,3480 ng/mL and 6.5 µM,97.6,117,99.5,107,98.2,94.8,90.9,100,84.8,94.6,66,61.7,96.2,37.6,remaining activity at 0.1 µM [16]: 73.2%
"OCCN1CCN(Cc2ccc(-c3cnc4[nH]cc(-c5cccc(Cl)c5)c4c3)cc2)CC1 [Compound 12k, 2-(4-(4-(3-(3-Chlorophenyl)-1H-pyrrolo[2,3-b]pyridin-5-yl)benzyl)piperazin-1-yl)ethan-1-ol]",3.3,4,1230 ng/g and 2.74 µM,< 375 ng/mL and < 840 nM,5180 ng/g and 11.6 µM,1290 ng/mL and 2.88 µM,85.6,103,101,101,86.8,103,76.2,89,91.6,96.3,78.9,45.3,92,74.5,remaining activity at 0.1 µM [16]: 59.1%

# — patent US12227500B2, “Substituted pyrrolo[2,3-b]pyridines for suppressing toxic endoplasmic reticulum stress” (THE TRUSTEES OF COLUMBIA UNIVERSITY IN THE CITY OF NEW YORK, priority 2018, dated 2025)
